Assay results published in ChEMBL document CHEMBL4613212, “Insights of synthetic analogues of anti-leprosy agents” (Bioorg Med Chem, 2019).
Values after ≈ are worked out from the molar mass of the structure shown.

The compounds below were run on Mycolicibacterium smegmatis (assay: Antimycobacterial activity against DDS sensitive Mycobacterium smegmatis ATCC 607 […]).
Assay type: functional

Row | SMILES | MIC [µg/mL]
1 | Nc1ccc(S(=O)(=O)c2ccccc2N)cc1 | 44.2 (≈ 178 µM)
2 | CNc1ccc(S(=O)(=O)c2ccc(N)cc2)cc1 | 37.3 (≈ 142 µM)
3 | CCN(CC)c1ccc(S(=O)(=O)c2ccc(N)cc2)cc1 | > 164
4 | Nc1ccc(S(=O)(=O)c2ccccc2)cc1 | 1290 (≈ 5520 µM)
5 | Nc1ccc(S(=O)(=O)c2ccc(F)cc2)cc1 | 95 (≈ 378 µM)
6 | Nc1ccc(S(=O)(=O)c2ccc(NO)cc2)cc1 [4-AMINO-4'-HYDROXAMINE-DIPHENYLSULPHONE] | 18.1 (≈ 68.5 µM)
7 | Nc1ccc(S(=O)(=O)c2ccc(NC=O)cc2)cc1 | 120 (≈ 434 µM)
8 | Nc1ccc(S(=O)(=O)c2ccc([N+](=O)[O-])cc2)cc1 | 34.4 (≈ 124 µM)
9 | CCCNc1ccc(S(=O)(=O)c2ccc(N)cc2)cc1 | 34.4 (≈ 118 µM)
10 | CCCCNc1ccc(S(=O)(=O)c2ccc(N)cc2)cc1 | 110 (≈ 361 µM)
11 | CCNc1ccc(S(=O)(=O)c2ccc(N)cc2)cc1 | 54.4 (≈ 197 µM)
12 | Nc1ccc(S(=O)(=O)c2ccc(NCCCO)cc2)cc1 | 19.6 (≈ 64 µM)
13 | O=S(=O)(c1ccc(O)cc1)c1ccc(O)cc1 | 400 (≈ 1600 µM)
14 | COC(=O)CNc1ccc(S(=O)(=O)c2ccc(N)cc2)cc1 | 32.8 (≈ 102 µM)
15 | Nc1cccc(S(=O)(=O)c2cccc(N)c2)c1 | 806 (≈ 3250 µM)
16 | Nc1ccc(S(=O)(=O)c2ccc(Br)cc2)cc1 | 319 (≈ 1020 µM)
17 | CCCCCNc1ccc(S(=O)(=O)c2ccc(N)cc2)cc1 | 377 (≈ 1180 µM)
18 | Nc1ccc(S(=O)(=O)c2ccc(Cl)cc2)cc1 | 432 (≈ 1610 µM)
19 | Nc1ccc(S(=O)(=O)c2ccc(NCC(=O)O)cc2)cc1 [ACEDIASULFONE] | 261 (≈ 853 µM)
20 | CCCCCCNc1ccc(S(=O)(=O)c2ccc(N)cc2)cc1 | > 360
21 | CCCCCN(CCCCC)c1ccc(S(=O)(=O)c2ccc(N)cc2)cc1 | > 257
22 | Nc1ccc(S(=O)(=O)c2ccc(NCCO)cc2)cc1 | 13.7 (≈ 46.9 µM)

The compounds below were run on Mycolicibacterium smegmatis (assay: Antimycobacterial activity against DDS resistant Mycobacterium smegmatis ATCC 607 […]).
Assay type: functional

Row | SMILES | MIC [µg/mL]
23 | Nc1ccc(S(=O)(=O)c2ccccc2)cc1 | > 2580
24 | Nc1ccc(S(=O)(=O)c2ccc(F)cc2)cc1 | > 1800
25 | Nc1ccc(S(=O)(=O)c2ccc(NO)cc2)cc1 [4-AMINO-4'-HYDROXAMINE-DIPHENYLSULPHONE] | 3000 (≈ 11400 µM)
26 | Nc1ccc(S(=O)(=O)c2ccc(NC=O)cc2)cc1 | > 400
27 | Nc1ccc(S(=O)(=O)c2ccc([N+](=O)[O-])cc2)cc1 | > 1200
28 | CCCNc1ccc(S(=O)(=O)c2ccc(N)cc2)cc1 | > 1200
29 | CCCCNc1ccc(S(=O)(=O)c2ccc(N)cc2)cc1 | > 650
30 | Nc1ccc(S(=O)(=O)c2ccc(NCCCO)cc2)cc1 | > 2400
31 | COC(=O)CNc1ccc(S(=O)(=O)c2ccc(N)cc2)cc1 | > 800
32 | CCCCCNc1ccc(S(=O)(=O)c2ccc(N)cc2)cc1 | > 500
33 | Nc1ccc(S(=O)(=O)c2ccc(Cl)cc2)cc1 | > 600
34 | Nc1ccc(S(=O)(=O)c2ccc(NCC(=O)O)cc2)cc1 [ACEDIASULFONE] | > 2200
35 | CCCCCCNc1ccc(S(=O)(=O)c2ccc(N)cc2)cc1 | > 400
36 | Nc1ccc(S(=O)(=O)c2ccc(NCCO)cc2)cc1 | 2500 (≈ 8550 µM)

The compounds below were run on Mycobacterium tuberculosis (assay: Antimycobacterial activity against Mycobacterium tuberculosis H37Rv by BACTEC radiometric growth assay).
Assay type: functional

Row | SMILES | MIC [µg/mL]
37 | CC[C@@H](CO)NCCN[C@@H](CC)CO [ETHAMBUTOL] | 2 (≈ 9.79 µM)
38 | NC(=O)CS(=O)(=O)CCCCCc1ccccc1 | 12.5 to 25 (≈ 46.4 to 92.8 µM)
39 | CCCCCCCCCCS(=O)(=O)CCC(N)=O | > 25
40 | CC(C)CCCCCCCS(=O)(=O)CC(N)=O | 1.5 (≈ 5.69 µM)
41 | CCCCCCCCCCS(=O)(=O)C(C)C(N)=O (configuration not stated) | > 25
42 | NC(=O)CS(=O)(=O)CCCCc1ccccc1 | > 25
43 | CCOCCOCCS(=O)(=O)CC(N)=O | > 25
44 | CCCCCCCC[S+]([O-])CC(=O)OC (configuration not stated) | 12.5 (≈ 53.3 µM)
45 | CCCCCCCCS(=O)(=O)NS(C)(=O)=O | > 25
46 | CC(=O)Nc1ccc(S(=O)(=O)c2ccc(NC(C)=O)cn2)cc1 | 12.5 (≈ 37.5 µM)
47 | CCCCCCCCC[S@+]([O-])CC(=O)OC | > 25
48 | CCCCCCCCC[S@@+]([O-])CC(N)=O | 25 (≈ 107 µM)
49 | CCCCCCCCOCC(N)=O | > 25
50 | C=C/C(C)=C/[C@@]1(C)SC(=O)C(C)=C1O [THIOLACTOMYCIN] | 25 (≈ 119 µM)
51 | NC(=O)CS(=O)(=O)CCCCCCc1ccccc1 | > 25
52 | CCCCCCCCS(=O)(=O)NS(N)(=O)=O | > 25
